In US9040103B2, “Use of essential oil of oregano and of rosewood, or constituents thereof, in the therapeutic treatment of keratoses” (L'Oreal, priority 2010, dated 2015):

Test system: A431 cells
Assay: Apoptosis, annexin V/propidium iodide (AV/PI) test
Format: cell-based, human
Details: 12 h; for death by targeted apoptosis of mutated cancer cells: A431 vs HEK001, linalool 320 nL/mL, carvacrol 60 nL/mL, thymol 30 nL/mL; for cytotoxic efficacy compared with the complex essential oils: concentrations equal to those present in the essential oil treatments
Experimental: These three molecules were incubated for 12 h with non-mutated immortalized keratinocytes (HEK001) and mutated cancerous keratinocytes (A431). The percentage of cells in apoptosis was measured by the annexin V/propidium iodide test. The concentrations of the molecules used were equal to those present during the treatments with the essential oils. Example: the concentration of linalool used here represents the equivalent of 80% of linalool present in the essential oil of rosewood.
Annexin V/Propidium Iodide Test:
One of the markers for apoptosis is the translocation of phosphatidyl-serine from the internal face towards the external face of the plasma membrane (translocation, allowing apoptotic bodies to be recognized and phagocyted by the macrophages).
The AV/PI test can be used to detect this event because of the affinity of the protein annexin V for phosphatidyl-serine. Propidium iodide, which targets DNA, can be used to distinguish early apoptotic cells from cells in late apoptosis and/or in necrosis.
After the desired treatment time, the medium was eliminated, the cells were harvested (by trypsinization), centrifuged and rinsed in 4 mL of PBS 1×. Tagging was carried out following the instructions of the manufacturer (Kit Vybrant, Molecular Probe). The cells were rapidly taken up in 100 μl of tagging buffer, to which 6 μl of annexin V and 3 μg/mL of propidium iodide per sample was added. The cells were then incubated for 30 min in the dark (at ambient temperature). Four hundred μL of tagging buffer was added before measuring the fluorescence of the annexin V (at 530 nm) and of the propidium iodide (at 610 nm).

SMILES	apoptotic A431 cells (60 nL/mL) [%]	death by targeted apoptosis of mutated cancer cells	cytotoxic efficacy compared with the complex essential oils	apoptotic A431 cells (30 nL/mL)
Cc1ccc(C(C)C)cc1O [carvacrol]	~25	qualitatively conserved	lower than with complex essential oils	–
Cc1ccc(C(C)C)c(O)c1 [thymol]	–	qualitatively conserved	lower than with complex essential oils	approximately 15%
C=CC(C)(O)CCC=C(C)C (centres unmarked) [linalool]	–	qualitatively conserved	lower than with complex essential oils	–
